# Test system: human keratinocytes
# Test: Cell protecting effect against UV-B in keratinocytes cultivated in vitro
# Assay type: cell-based
# Conditions: UV-B 50 mJ/cm2, concentration not given
# Source text: Background: UV-B rays cause inflammation (erythema, edema) by activating an enzyme, namely phospholipase A2 or PLA2, which removes arachidonic acid from the phospholipids of the cell membrane. Arachidonic acid is the precursor of the prostaglandins which cause inflammation and cell membrane damage; the prostaglandins E2 (=PGE2) are formed by cyclooxygenase. A UV-challenged cell produces another inflammation mediator, namely interleucine-1-alpha (1′ILα), which is capable of inducing the secretion of prostaglandins.
# Method: The effect of UV-B radiation was investigated in vitro in keratinocytes by determining the release of the cytoplasm enzyme LDH (lactate dehydrogenase) and the(1′ILα) content.
# To carry out the tests, a defined medium containing fetal calf serum was inoculated with the keratinocytes and Trichodyn® was added 72 hours after the inoculation.
# The keratinocytes were then exposed to a dose of UV-B (50 mJ/cm^2-tubes: DUKE GL40E).
# After incubation for another day at 37° C./5% CO2, the LDH content in the supernatant was determined. The LDH (lactate dehydrogenase) content was determined by an enzyme reaction (kit used to determine LDH levels from Roche). In addition , the (1′ILα) content was determined by the ELISA test. The number of adhering keratinocytes was determined (after trypsin treatment) with a particle counter.
smiles,measurement,setting,value
CC(=O)Oc1ccccc1C(=O)O [aspirin],(1′ILα) content,UV-B alone = 100,69%
same,Content of released LDH,UV-B alone = 100,66%
same,No. of keratinocytes,"control without UV-B = 100, UV-B alone 17",15%
